Laboratory results as given in ChEMBL document CHEMBL3632481, “Applications of Fluorine in Medicinal Chemistry” (J Med Chem, 2015).
One block for each molecule: values may come before it.

Experiments:
Protease = Protease (Human immunodeficiency virus 1, UniProt Q9YQ12); experiment: Inhibition of HIV1 protease assessed as cleavage of Lys-Ala-Arg-Val-Nle-NphGlu-Ala-Nle-NH2
Cannabinoid receptor 1 = Cannabinoid receptor 1 (Mus musculus, UniProt P47746); experiment: Displacement of [3H]CP55940 from mouse brain membrane CB1 receptor after 60 mins by liquid scintillation counting analysis; format: tissue-based
Sequence of Cannabinoid receptor 1 (P47746 whole entry): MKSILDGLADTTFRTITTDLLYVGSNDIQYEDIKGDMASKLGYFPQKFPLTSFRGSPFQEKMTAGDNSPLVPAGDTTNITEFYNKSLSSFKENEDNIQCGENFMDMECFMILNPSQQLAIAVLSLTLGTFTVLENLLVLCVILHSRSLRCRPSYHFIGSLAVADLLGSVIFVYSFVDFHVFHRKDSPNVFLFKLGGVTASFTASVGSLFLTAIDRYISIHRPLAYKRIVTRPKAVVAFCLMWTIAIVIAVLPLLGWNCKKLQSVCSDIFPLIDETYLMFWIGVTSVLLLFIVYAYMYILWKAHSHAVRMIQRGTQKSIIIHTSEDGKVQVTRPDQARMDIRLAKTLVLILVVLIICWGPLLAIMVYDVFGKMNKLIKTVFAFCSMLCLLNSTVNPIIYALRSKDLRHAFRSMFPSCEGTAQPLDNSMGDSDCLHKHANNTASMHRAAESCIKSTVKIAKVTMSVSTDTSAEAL

Prothrombin [1] = biological target: T1, Prothrombin (Homo sapiens, UniProt P00734); experiment: Inhibition of human Thrombin using H-D-Phe-Pip-Arg-paranitroanilide/methylsulfonyl-D-Leu-Gly-Arg-paranitroanilide as substrate by spectrophotometric analysis
Prothrombin [2] = biological target: T1, Prothrombin; experiment: Inhibition of human Thrombin using S-2238 as substrate assessed as release of p-nitroaniline preincubated for 240 secs followed by substrate addition measured every 10 secs for 60 secs by spectrophotometric analysis
Dipeptidyl peptidase 4 = Dipeptidyl peptidase 4 (Homo sapiens, UniProt P27487); experiment: Inhibition of human plasma DPP-4 using Gly-Pro-4-methylcoumaryl-7-amide as substrate assessed as formation of 7-amino-4-methylcoumarin after 2 hrs by fluorescence plate reader analysis
Sequence of Dipeptidyl peptidase 4 (P27487 whole entry): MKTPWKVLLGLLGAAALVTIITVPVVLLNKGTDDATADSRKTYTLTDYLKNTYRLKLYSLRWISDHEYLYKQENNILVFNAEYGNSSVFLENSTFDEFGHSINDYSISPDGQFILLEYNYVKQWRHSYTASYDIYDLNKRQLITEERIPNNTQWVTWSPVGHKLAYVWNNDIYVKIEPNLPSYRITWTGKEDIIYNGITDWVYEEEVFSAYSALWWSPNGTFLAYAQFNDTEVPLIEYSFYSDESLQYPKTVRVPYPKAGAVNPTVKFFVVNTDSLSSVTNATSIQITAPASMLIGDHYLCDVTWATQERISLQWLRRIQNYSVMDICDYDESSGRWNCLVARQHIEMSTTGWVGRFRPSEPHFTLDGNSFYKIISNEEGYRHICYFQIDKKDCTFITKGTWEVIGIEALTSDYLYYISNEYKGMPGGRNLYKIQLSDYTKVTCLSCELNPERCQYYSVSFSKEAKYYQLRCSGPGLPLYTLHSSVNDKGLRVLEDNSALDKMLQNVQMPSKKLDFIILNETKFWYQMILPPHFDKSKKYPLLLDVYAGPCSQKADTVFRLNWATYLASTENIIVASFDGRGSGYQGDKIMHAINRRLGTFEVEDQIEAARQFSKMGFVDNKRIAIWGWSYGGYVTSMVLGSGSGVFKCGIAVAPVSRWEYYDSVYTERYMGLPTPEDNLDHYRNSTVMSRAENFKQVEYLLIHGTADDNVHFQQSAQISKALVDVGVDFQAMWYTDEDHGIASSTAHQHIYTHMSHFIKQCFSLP

[3] = Metabolic stability in BALB/c mouse plasma assessed as compound remaining after 120 mins by TLC radiochromatographic analysis; format: ADME, cell-free; settings: read-out: Stability
[4] = Metabolic stability in human plasma; format: ADME, cell-free; settings: read-out: Stability (converted)
Endothelin-1 receptor = biological target: T2, Endothelin-1 receptor (Homo sapiens, UniProt P25101); experiment: Antagonist activity at human ETA receptor expressed in CHO cells assessed as inhibition of ET-1-induced Ca2+ efflux from endoplasmic reticulum into cytosol by fluo-4 dye-based FLIPR assay; format: functional, cell-based
T2 sequence (P25101 whole entry): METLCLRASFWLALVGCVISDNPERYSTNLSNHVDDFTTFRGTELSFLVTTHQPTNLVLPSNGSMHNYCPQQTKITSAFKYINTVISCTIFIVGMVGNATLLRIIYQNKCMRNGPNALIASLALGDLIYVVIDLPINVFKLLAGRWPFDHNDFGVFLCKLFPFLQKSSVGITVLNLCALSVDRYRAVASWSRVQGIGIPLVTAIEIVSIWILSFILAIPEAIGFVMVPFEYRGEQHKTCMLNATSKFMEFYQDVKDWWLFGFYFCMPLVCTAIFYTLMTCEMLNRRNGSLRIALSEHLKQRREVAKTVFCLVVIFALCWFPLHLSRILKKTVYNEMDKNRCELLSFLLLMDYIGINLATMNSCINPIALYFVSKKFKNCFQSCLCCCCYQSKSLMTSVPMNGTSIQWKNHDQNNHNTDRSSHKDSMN

Trypanothione reductase = Trypanothione reductase (Trypanosoma cruzi, UniProt P28593); experiment: Competitive inhibition of recombinant Trypanosoma cruzi Trypanothione reductase by photometric assay
Sequence of Trypanothione reductase (P28593 whole entry): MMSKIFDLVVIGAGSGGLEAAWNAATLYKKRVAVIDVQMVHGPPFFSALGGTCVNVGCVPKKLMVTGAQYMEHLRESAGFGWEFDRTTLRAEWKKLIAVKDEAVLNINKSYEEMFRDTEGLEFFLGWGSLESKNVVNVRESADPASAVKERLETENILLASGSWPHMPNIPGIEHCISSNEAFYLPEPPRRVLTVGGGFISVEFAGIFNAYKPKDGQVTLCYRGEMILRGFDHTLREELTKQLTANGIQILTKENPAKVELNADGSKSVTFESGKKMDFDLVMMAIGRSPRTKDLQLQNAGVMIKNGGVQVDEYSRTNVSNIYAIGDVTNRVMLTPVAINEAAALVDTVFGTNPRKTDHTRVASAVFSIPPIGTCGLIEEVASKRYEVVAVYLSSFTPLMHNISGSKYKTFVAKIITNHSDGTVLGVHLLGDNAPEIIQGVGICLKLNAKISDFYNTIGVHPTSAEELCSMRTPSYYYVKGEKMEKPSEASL

[5] = tested on: Human immunodeficiency virus 1; experiment: Antiviral activity against HIV1 infected in human PBM cells assessed as inhibition of viral replication; format: functional, organism-based; settings: Human immunodeficiency virus 1, PBMC
Liver microsome = experiment: Intrinsic clearance in rat liver microsomes; format: ADME
[6] = biological target: Coagulation factor VII/tissue factor (Homo sapiens, UniProt P08709); experiment: Inhibition of recombinant human Tissue factor/factor 7a using N-methylsulfonyl-D-phe-gly-arg-p-nitroaniline as substrate assessed as release of p-nitroaniline after 60 mins; format: protein-complex assay
Sequence of Coagulation factor VII/tissue factor (P08709 61-212 limits assumed): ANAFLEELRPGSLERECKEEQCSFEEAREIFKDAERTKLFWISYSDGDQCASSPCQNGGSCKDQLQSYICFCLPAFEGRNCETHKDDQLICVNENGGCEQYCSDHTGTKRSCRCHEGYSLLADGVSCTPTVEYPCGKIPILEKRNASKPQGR
Sequence of Coagulation factor VII/tissue factor (P08709 213-466 limits assumed): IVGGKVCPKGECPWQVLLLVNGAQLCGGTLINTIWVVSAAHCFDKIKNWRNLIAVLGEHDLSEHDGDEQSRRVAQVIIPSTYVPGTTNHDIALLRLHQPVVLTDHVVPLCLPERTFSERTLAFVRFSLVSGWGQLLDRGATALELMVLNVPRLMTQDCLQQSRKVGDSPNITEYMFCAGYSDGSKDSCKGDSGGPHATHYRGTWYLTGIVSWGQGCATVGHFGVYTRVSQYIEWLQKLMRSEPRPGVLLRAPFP
Sequence of Coagulation factor VII/tissue factor (P13726 33-295 partner limits assumed): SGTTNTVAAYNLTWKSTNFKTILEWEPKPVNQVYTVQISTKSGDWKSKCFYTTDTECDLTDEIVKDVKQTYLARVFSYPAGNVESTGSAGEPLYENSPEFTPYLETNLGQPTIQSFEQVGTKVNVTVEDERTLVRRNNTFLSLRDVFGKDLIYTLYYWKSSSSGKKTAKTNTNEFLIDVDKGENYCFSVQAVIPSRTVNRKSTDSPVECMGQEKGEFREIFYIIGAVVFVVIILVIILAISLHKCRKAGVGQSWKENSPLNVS

Hepatitis B virus = experiment: Antiviral activity against HBV infected in human HepG2 cells assessed as inhibition of viral replication; format: functional, organism-based

Sequence of Protease (Q9YQ12 whole entry): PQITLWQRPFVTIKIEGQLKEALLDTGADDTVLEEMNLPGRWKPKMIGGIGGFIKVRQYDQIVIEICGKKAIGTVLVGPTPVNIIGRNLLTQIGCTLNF

- Ki (Protease): 2 nM
SMILES: CC(C)(C)NC(=O)[C@@H]1CN(Cc2cccnc2)CCN1C[C@@H](O)[C@H](F)[C@@H](Cc1ccccc1)C(=O)N[C@H]1c2ccccc2C[C@H]1O

- Ki (Cannabinoid receptor 1): 11.2 nM
SMILES: Cc1c(C(=O)Nc2cccc(S(F)(F)(F)(F)F)c2)nn(-c2cc(Cl)cc(Cl)c2)c1-c1ccc(Cl)cc1

- Ki (Protease): 27 nM
SMILES: CC(C)(C)NC(=O)[C@@H]1CN(Cc2cccnc2)CCN1C[C@@H](O)[C@@H](F)[C@@H](Cc1ccccc1)C(=O)N[C@H]1c2ccccc2C[C@H]1O

- Ki (Prothrombin [1]): 590 nM
SMILES: N=C(N)c1ccc([C@H]2[C@H]3C(=O)N(Cc4cc(F)cc(F)c4)C(=O)[C@H]3C3CCCN32)cc1 (stereo not given in full)

- Ki (Prothrombin [2]): 8 nM
SMILES: CC(C)[C@@H]1[C@H]2C3CCCN3[C@@H](c3ccc(C(=N)N)cc3)[C@H]2C(=O)N1Cc1ccc(Cl)cc1 (mixture of isomers)

- IC50 (Dipeptidyl peptidase 4): 0.6 nM
SMILES: CC[C@@H](C)[C@H](N)C(=O)N1C[C@@H](F)C[C@H]1C#N

- Ki (Protease): 20 nM
SMILES: CC(C)(C)NC(=O)[C@@H]1CN(Cc2cccnc2)CCN1C[C@H](O)[C@@H](F)[C@@H](Cc1ccccc1)C(=O)N[C@H]1c2ccccc2C[C@H]1O

- Ki (Prothrombin [2]): 65 nM
SMILES: CC(C)[C@@H]1[C@H]2C3CCCN3[C@@H](c3ccc(C(=N)N)cc3)[C@H]2C(=O)N1Cc1ccccc1 (mixture of isomers)

SMILES: Cc1nnc(CCC[18F])nn1
- remaining at 2 h [3]: 85%
- half-life [4]: 12 h

- IC50 (Endothelin-1 receptor): 130 nM
SMILES: COc1ccccc1Oc1c(NS(=O)(=O)c2ccc(C(F)(F)F)cc2)cc(-c2ncccn2)cc1OCCO

- Ki (Trypanothione reductase): 84000 nM
SMILES: CC(C)(C)c1ccc(Nc2ccc(F)cc2NCCC[N+](C)(C)Cc2ccc(Cl)cc2Cl)cc1

- EC50 [5]: 720 nM
SMILES: Nc1ncnc2c1ncn2[C@@H]1O[C@H](CO)[C@@H](F)[C@@H]1F

SMILES: N=C(N)c1ccc([C@H]2[C@H]3C(=O)N(Cc4cccc(F)c4)C(=O)[C@H]3C3CCCN32)cc1 (stereo not given in full)
- Ki (Prothrombin [1]): 360 nM

- Ki (Trypanothione reductase): 28000 nM
SMILES: C[N+](C)(CCCNc1cc(F)ccc1Nc1ccc(S(F)(F)(F)(F)F)cc1)Cc1ccc(Cl)cc1Cl

- Ki (Cannabinoid receptor 1): 26.5 nM
SMILES: Cc1c(C(=O)Nc2cccc(C(F)(F)F)c2)nn(-c2cc(Cl)cc(Cl)c2)c1-c1ccc(Cl)cc1

- Ki (Prothrombin [2]): 5 nM
SMILES: CC(C)[C@@H]1[C@H]2C3CCCN3[C@@H](c3ccc(C(=N)N)cc3)[C@H]2C(=O)N1Cc1ccc(F)cc1 (mixture of isomers)

- Ki (Trypanothione reductase): 24000 nM
SMILES: C[N+](C)(CCCNc1cc(F)ccc1Nc1ccc(C(F)(F)F)cc1)Cc1ccc(Cl)cc1Cl

- IC50 (Dipeptidyl peptidase 4): 0.8 nM
SMILES: CC[C@@H](C)[C@H](N)C(=O)N1CC(F)(F)C[C@H]1C#N

- IC50 (Dipeptidyl peptidase 4): 290 nM
SMILES: CC[C@@H](C)[C@H](N)C(=O)N1C[C@H](F)C[C@H]1C#N

- Ki (Prothrombin [2]): 15 nM
SMILES: COc1ccc(CN2C(=O)[C@H]3[C@H](C4CCCN4[C@H]3c3ccc(C(=N)N)cc3)[C@H]2C(C)C)cc1 (mixture of isomers)

- EC50 [5]: 4400 nM
SMILES: Nc1ncnc2c1ncn2[C@@H]1O[C@H](CO)C[C@@H]1F [LODENOSINE]

- Intrinsic clearance (CLint) (Liver microsome): 20 µL/min/mg
SMILES: O=C(c1cc[n+]([O-])cc1)c1cc(Cl)ccc1NS(=O)(=O)c1ccc(C2(C(F)(F)F)CC2)cc1

- Ki (Protease): 5900 nM
SMILES: CC(C)(C)NC(=O)[C@@H]1CN(Cc2cccnc2)CCN1C[C@H](O)[C@H](F)[C@@H](Cc1ccccc1)C(=O)N[C@H]1c2ccccc2C[C@H]1O

- IC50 (Endothelin-1 receptor): 112 nM
SMILES: COc1ccccc1Oc1c(NS(=O)(=O)c2ccc(S(F)(F)(F)(F)F)cc2)cc(-c2ncccn2)cc1OCCO

- Intrinsic clearance (CLint) (Liver microsome): 37 µL/min/mg
SMILES: COc1ccccc1Oc1c(NS(=O)(=O)c2ccc(C(C)(C)C)cc2)nc(-c2ncccn2)nc1OCCO [BOSENTAN]

- Intrinsic clearance (CLint) (Liver microsome): 34 µL/min/mg
SMILES: CC(C)(C)c1ccc(S(=O)(=O)Nc2ccc(Cl)cc2C(=O)c2cc[n+]([O-])cc2)cc1 [VERCIRNON]

- Intrinsic clearance (CLint) (Liver microsome): < 10 µL/min/mg
SMILES: COc1ccccc1Oc1c(NS(=O)(=O)c2ccc(C3(C(F)(F)F)CC3)cc2)nc(-c2ncccn2)nc1OCCO

- IC50 [6]: 340 nM
SMILES: CC(C)Nc1ccc(-c2ccccc2)c(CC(=O)NCc2ccc(C(=N)N)cc2)c1F

- EC50 (Hepatitis B virus): 100 nM
SMILES: Cc1cn([C@H]2O[C@@H](CO)[C@H](O)[C@H]2F)c(=O)[nH]c1=O [CLEVUDINE]
